Consider one compound from article PMC12828148, “Engineered cyclic peptide targeting ITGA5 disrupts tumor–stroma interaction to overcome desmoplasia and resistance in pancreatic ductal adenocarcinoma” (Acta Pharmaceutica Sinica. B, 2025).

Series [1] deals with TGF-β treated PSCs. Nature of the series: Cell adhesion competition study (PSC attachment to FN-coated plate, crystal violet). The following applies: 50 μmol/L peptide, 30 min pre-incubation 37 °C, 1 h attachment, crystal violet absorbance 600 nm, n = 3. The class given is cell-based, human. As for the experimental part: To analyze the interaction of PSC and FN, a 96 suspension well plate was coated with 100 μL FN (Advanced Biomatrix, Carlsbad, CA, USA) at 1 μg/mL by overnight incubation at 4 °C. Next, the plate was washed with DPBS (Lonza) and blocked with 5% bovine serum albumin (BSA) in DPBS for at least 1 h at RT. In the meantime, a cell suspension of 200,000 cells/mL of TGF-β treated PSCs in DPBS with 2 mmol/L Ca^2+ and 2 mmol/L Mg^2+ was treated with 50 μmol/L AV3.3 or cyAV3.3 and incubated for 30 min at 37 °C. After washing the plate with DPBS, 100 μL cell suspension was added to each well and then set to rest for 1 h at RT. The plate was then washed with DPBS to remove unattached cells. […] Next, cells were stained with 0.1% (w/v) crystal violet (Sigma) in 25% methanol at RT. After 20 min, cells were washed with water and lysed with 0.5% (w/v) SDS. The degree of cell attachment was measured by the absorbance of the crystal violet at 600 nm using Tecan Infinite M200 plate reader (Tecan, Mannendorf, Switzerland). In other plate, cells were washed with DPBS after fixation and then stained with DAPI. Images were developed using EVOS fluorescence microscope (Thermo Scientific).

In series [2] the test system is hPSCs. Nature of the series: Cell viability, Alamar blue assay. The class given is cell-based, human. As for the experimental part:
We investigated the inhibitory effect of both cyclic and linear peptides on PSC activation and signaling. To achieve this, PSCs were seeded and treated with TGF-β and peptides for 48 h (protein expression) or 24 h (gene expression). We also tested the effect of the peptide on the cell viability using Alamar blue assay and found no toxicity (Supporting Information Fig. S3A). […] To quantitate that, we performed Western blot analysis and confirmed the observed effect via immunostaining (Fig. 2B and C; Fig. S3B). The details of the antibodies used can be found in Supporting Information Table S2. […] After obtaining these effects, we focused on cyAV3.3 and examined its inhibitory effects on TGF-β1-stimulated PSCs using qPCR and an RT[2] profiler PCR array for ECM and adhesion receptors (Fig. 2D). […] The details of primers for all genes can be found in Supporting Information Table S3. […] In contrast, cyAV3.3 induced the gene expression of ECM-degrading proteins such as MMP10 and ADAMTS-13 (Supporting Information Fig. S4).
Background: The colour change of resazurin is a common sign of viable cells or microbes.

The subject of series [3] is hPSCs activated by TGF-β. Nature of the series: Gene expression in TGF-β-activated hPSCs (qPCR, RT2 profiler PCR array). The format is cell-based, human. As for the experimental part: Quantitative real-time PCR
To examine the effect of peptides on the gene expression of hPSC activation markers, cells were seeded into a 12 well plate at a seeding density of 50,000 cells/well. After overnight incubation, cells were starved for 24 h, then treated with human recombinant 5 ng/mL TGF-β (Peprotech, […]
After 24 h of the incubation, cells were lysed and total RNA was isolated using GenElute™ Mammalian Total RNA Miniprep Kit (Sigma–Aldrich) and the RNA concentration was measured using a NanoDrop® ND-1000 Spectrophotometer (Thermo Scientific, Waltham, USA). cDNA was synthesized with iScript™ cDNA Synthesis Kit (BioRad, Veenendaal, The Netherlands), and 10 ng cDNA was used for each PCR reaction. The real-time PCR primers (Table S1) were purchased from Sigma–Aldrich. Quantitative real time PCR was performed with 2× SensiMix SYBR and Fluoroscein Kit (Bioline GmbH, Luckenwalde, Germany) using a BioRad CFX384 Real-Time PCR detection system (BioRad). Gene expression levels were normalized to the expression of the house-keeping gene 18s rRNA. […]
The next day, the medium […]
was changed with 0% FBS Stellate Cell medium to starve hPSCs for 24 h. Subsequently, hPSCs were incubated with 5 ng/mL TGF-β1 and peptide for 48 h to examine the effect on protein expression of different markers such as α-SMA and collagen-1. Cells were lysed using 1× blue loading buffer containing 1× DTT reducing agent (Cell Signaling Technology) and homogenized using ultrasonication. Protein lysates were separated on a 4%–20% Tris-Glycine gel (Thermo Scientific) and then transferred onto a PVDF membrane (Thermo Scientific). […]
(Quantitative PCR measures a nucleic acid by following its amplification.)

Series [4] concerns PANC-1 + PSC and MIA PaCa-2 + PSC co-injection xenograft tumors. Here is the method: Six-week-old male CB17 SCID mice (Janvier Labs, Le Genest-Saint-Isle, France) were subcutaneously injected with a 2:1 mixture of 4 × 10^6 human PSCs and 2 × 10^6 PANC-1 or MIA PaCa-2 cells. Tumor growth was assessed twice a week. Tumor-bearing mice (±100 mm^3) were treated with phosphate buffered saline (PBS), cyAV3.3, gemcitabine, or combination of gemcitabine and cyAV3.3 intraperitoneally (i.p). Animals were euthanized, tumors and other organs were harvested and embedded in Cryomatrix (Thermo Scientific) before being snap frozen in cold 2-methyl butane (Thermo Scientific) and stored at −80 °C until analyses. […]
Immunohistochemical staining of mouse tumors
Tumors were cut into 7 μm thick sections and mounted on glass slides using Cryotome FSE (Thermo Scientific), dried, and fixed in acetone for 15 min. Tumor sections were rehydrated in PBS for 10 min then incubated with primary antibody diluted in PBS for 1 hour at RT. Antibodies […]
Next, slides were washed 3 times with PBS before incubation with secondary fluorescence-labeled antibody diluted in PBS. After 30 min of incubation, slides were washed with PBS and shielded with a DAPI -containing mounting medium. Images were made using a Hamamatsu NanoZoomer Digital slide scanner 2.0HT (Hamamatsu Photonics, New Jersey, […]

Molecules are shown by their SMILES. Peptide text beside a SMILES is read from it.

For the compound `C[C@@H]1NC(=O)[C@H](CCCNC(=N)N)NC(=O)[C@H](Cc2ccc(O)cc2)NC(=O)[C@H](Cc2ccc(O)cc2)NC(=O)[C@H](CCCNC(=N)N)NC(=O)CNC(=O)[C@H](CCCCN)NC(=O)[C@H](Cc2ccc(O)cc2)NC(=O)[C@H]([C@@H](C)O)NC1=O` [cyAV3.3] (cyclo(ATYKGRYYR)), the “blocking of the binding of PSC to FN” value in series [1] is given as “blocked the binding of PSC to FN significantly higher than AV3.3”. For the same compound, in series [2], the “effect on cell viability” value was “no toxicity”. For the same compound, the “gene expression of FN and ITGA5” value in series [3] (hPSCs activated by TGF-β, cyAV3.3 50 μmol/L, 24 h, qPCR) was “significantly inhibited the gene expression of FN and ITGA5”. For the same compound, the “expression of 38 ECM and adhesion genes upregulated by TGF-β (heatmap)” value in series [3] (hPSCs activated by TGF-β, cyAV3.3 50 μmol/L, RT2 Profiler PCR array) is “downregulated all the upregulated genes”. In series [3] (hPSCs, 5 ng/mL TGF-β, 24 h, qPCR), the “TGF-β-induced gene expression of ACTA2 and COL-1A1” value was “inhibited both ACTA2 and COL-1A1 concentration dependently”. Further, the “reduction of tumor size / tumor growth” value in series [4] (PANC-1 + PSC and MIA PaCa-2 + PSC co-injection xenografts, i.p. treatment, n = 4 per group per tumor type) was approximately 30%. In series [4] (co-injection xenograft mice, i.p. treatment), the “signs of toxicity (body mass, organ mass)” value is reported as “did not show any obvious signs of toxicity”. Also, the “tumor blood vessel (CD31+) lumen diameter” value in series [4] (immunofluorescence, co-injection xenograft tumors) is given as “larger lumen diameter compared to the control tumors”.
